Marks after values point to notes of the source that are not given here.
Experiments:
[1] = test system: chicken type II collagen-induced arthritis model in SD rats; assay: Hindfoot joint score in chicken type II collagen-induced arthritis model in SD rats; format: in vivo; set-up: scale not given here; details: tail vein, every other day
Procedure: (§1) After inflamed model was successfully established in SD rats, the SD rats were randomly divided into model control group (12 rats), low, medium dose group (8 rats for each), and high dose group (12 rats) of test drug depending on body weight. Rats in the model control group were administered a blank fat emulsion injection (0.5 mL) by tail vein injection every other day for 7 days; rats in the low and medium dose group of test drug were administered a fat emulsion injection of a compound of Formula A (specifically including Compounds I-VI described hereafter) by tail vein injection every other day for 7 days; rats in the high dose group of test drug were administered a fat emulsion injection of a compound of Formula A by tail vein injection every other day for 14 days. 12 same models in the normal control group were also administered a blank fat emulsion injection. Indexes such as hindfoot joint score, hindfoot joint thickness measurement, TNF-α level in serum and hindfoot joint tissues, hindfoot joint pathological section and the like were used to evaluate efficacy of the drug.
(§2) Chicken type II collagen was dissolved in 0.1 mol/L acetic acid at 4° C. while stirring so as to be thoroughly dissolved at a concentration of 2 mg/mL The resulting solution was put into a refrigerator at 4° C. overnight. Liquid paraffin and lanolin were mixed at a ratio of 2:1 (volume ratio), and the mixture was autoclaved to prepare an incomplete Freund's adjuvant (IFA). Bacillus Calmette Guerin (BCG) vaccine (60 mg) was inactivated at 80° C. for 1 hour and transferred to a mortar, into which was dropwise added IFA. After being uniformly grinded, the resulting mixture was pushed and sucked repeatedly by double-syringe to prepare a complete Freund's adjuvant (CFA), with the final concentration of BCG vaccine being 2 mg/mL. An equal amount of chicken type II collagen acid solution was mixed with CFA into a stable emulsion (containing 1 mg chicken type II collagen per milliliter).
(§3) 12 female SD rats were randomly selected from 192 female SD rats as normal control group. The remaining 180 rats was disinfected with iodine tincture. After being deiodinated with 75% ethanol, each of the rat was administered 150 μL collagen emulsion by intradermal injection at the base of the tail, and was administered 100 μL collagen emulsion by intradermal injection at the vola pedis of right hindfoot. Thus, totally 250 μL for each rat was administered. 7 days later, an equal amount of collagen emulsion was intraperitoneal injected as a secondary immune.
(§4) Animal grouping and administration: inflamed rats were divided into model control group, low, medium and high dose groups of test drug based on body weight.
(§5) Rats in each group were scored for the hindfoot joint and measured for the thickness of ankle joint before being inflamed. Normal rats were taken blood from orbital venous plexus. The serum of the blood was separated out and cryopreserved at −20° C. to detect cytokines. Rats were scored for joint after being inflamed for 3 days, and were measured for the thickness of ankle joint before administration (on the 19th day since being inflamed), on the 3rd day and 8th day after administration (on the […] since being inflamed). Rats in each group were taken blood from orbital venous plexus when inflammation was severe (on the 23rd day after being inflamed). The serum of the blood was separated out and cryopreserved at −20° C. 8 rats for each group were sacrificed on the 28th day after being inflamed and were taken blood from intraperitoneal vein. The serum of the blood was separated out and was subjected to serological detection (TNF-α). The rest of rats were sacrificed on the 35th day after being inflamed, and histology index detection was carried out

TNF-α [2] = assay: TNF-α level in serum of rats with arthritis (ELISA); format: in vivo, SD rats
Procedure: as §1
(§6) Compound I used in the present invention was purchased from Xi′ an Libang Pharmaceutical Co., Ltd.; Compounds II-IV were synthesized by the following method. SD rats used in the present invention were purchased from Super-B&K Laboratory Animal Corp. Ltd.; chicken type II collagen was purchased from Sigma, Lot No. 87H5227; rat tumor necrosis factor-α [TNF-α] enzyme-linked immunoassay kit (ELISA) was purchased from Shanghai Biovol Biotech Co., Ltd., Lot No. BV-E12102201.
as §2, §3, §4
as §5, with “8 rats for each group were sacrificed on the 28th day after being inflamed and were taken blood from intraperitoneal vein. The serum of the blood was separated out and was subjected to serological detection (TNF-α). The rest of rats were sacrificed on the 35th day after being inflamed, and histology index detection was carried out” left out

TNF-α [3] = assay: TNF-α level in hindfoot ankle joint tissue of rats with arthritis; format: in vivo, SD rats
Procedure: as §1, §6, §2, §3, §4
as §5, with “8 rats for each group were sacrificed on the 28th day after being inflamed and were taken blood from intraperitoneal vein. The serum of the blood was separated out and was subjected to serological detection (TNF-α). The rest of rats were sacrificed on the 35th day after being inflamed, and histology index detection was carried out” left out

[4] = test system: chicken type II collagen-induced arthritis model in SD rats; assay: Pathological examination score of hindfoot ankle joint of rats with arthritis; format: in vivo; details: high dose group (1.40-2.16 mg/kg per compound), every other day for 14 days, n=4
Procedure: as §1, §2
as §3, with “Thus, totally 250 μL for each rat was administered. 7 days later, an equal amount of collagen emulsion was intraperitoneal injected as a secondary immune.” left out
Rats in each group were scored for the hindfoot joint and measured for the thickness of ankle joint before being inflamed. […] Rats were scored for joint after being inflamed for 3 days, and were measured for the thickness of ankle joint before administration (on the 19th day since being inflamed), on the 3rd day and 8th day after administration (on the 20th day since being inflamed). […]

[5] = test system: chicken type II collagen-induced arthritis model in SD rats; assay: Thickness of right hindfoot ankle joint by microcalliper, collagen-induced arthritis rats; format: in vivo
Procedure: as §1, §2, §3, §4, §5

[6] = high dose group, before administration (baseline)
[7] = high dose group, the 3rd day after administration
[8] = high dose group, the 8th day after administration
[9] = low dose group, before administration (baseline)
[10] = low dose group, the 3rd day after administration
[11] = low dose group, the 8th day after administration
[12] = medium dose group, before administration (baseline)
[13] = medium dose group, the 3rd day after administration
[14] = medium dose group, the 8th day after administration
[15] = left ankle joint, high dose group
[16] = left ankle joint, low dose group
[17] = left ankle joint, medium dose group
[18] = right ankle joint, high dose group
[19] = right ankle joint, low dose group
[20] = right ankle joint, medium dose group

Molecule	Mean value of hindfoot joint score [1, 6]	Mean value of hindfoot joint score [1, 7]	Mean value of hindfoot joint score [1, 8]	Mean value of hindfoot joint score [1, 9]	Mean value of hindfoot joint score [1, 10]	Mean value of hindfoot joint score [1, 11]	Mean value of hindfoot joint score [1, 12]	Mean value of hindfoot joint score [1, 13]	TNF-α level in serum (mean ± SD) (TNF-α [2]; [7])	TNF-α level in serum (mean ± SD) (TNF-α [2]; [8])	TNF-α level in serum (mean ± SD) (TNF-α [2]; [10])	TNF-α level in serum (mean ± SD) (TNF-α [2]; [11])	TNF-α level in serum (mean ± SD) (TNF-α [2]; [13])	TNF-α level in serum (mean ± SD) (TNF-α [2]; [14])	TNF-α level in ankle (mean ± SD) (TNF-α [3]; [15])	TNF-α level in ankle (mean ± SD) (TNF-α [3]; [16])	TNF-α level in ankle (mean ± SD) (TNF-α [3]; [17])	TNF-α level in ankle (mean ± SD) (TNF-α [3]; [18])	TNF-α level in ankle (mean ± SD) (TNF-α [3]; [19])	TNF-α level in ankle (mean ± SD) (TNF-α [3]; [20])	further results
7-α-[9-(4,4,5,5,5-pentafluoropentylsulfinyl)nonyl]-estra-1,3,5(10)-triene-3-acetyl-17-(undec-2-enoyl) [Compound VI]	5.3	4.7**^#	5.5	4.6	5.4**^##	4.9	4.8	4.6**	28.27 ± 37.62 pg/mL	26.56 ± 18.06 pg/mL	47.22 ± 96.55 pg/mL	197.35 ± 231.02 pg/mL	13.08 ± 7.93 pg/mL	78.21 ± 88.90 pg/mL	12.05 ± 4.01 pg/mL	14.39 ± 3.52 pg/mL	13.98 ± 3.66 pg/mL	14.58 ± 2.79 pg/mL	15.31 ± 5.02 pg/mL	12.67 ± 5.23 pg/mL	Mean value of hindfoot joint score [1, 14]: 5.5; Joint lesion score (mean ± SD) [4]: 1.88 ± 1.26
7-α-[9-(4,4,5,5,5-pentafluoropentylsulfinyl)nonyl]-estra-1,3,5(10)-triene-3-hydroxyl-17-(undec-2-enoyl) [Compound V]	4.5	5.6^##	4.8	4.6	5.1**	5.9^##	4.4	5.7^##	46.48 ± 101.05 pg/mL	12.35 ± 9.72 pg/mL	66.71 ± 121.06 pg/mL	123.73 ± 157.16 pg/mL	10.02 ± 14.59 pg/mL	23.44 ± 27.21 pg/mL	12.76 ± 3.34 pg/mL	13.56 ± 5.28 pg/mL	14.25 ± 5.00 pg/mL	13.68 ± 4.44 pg/mL	12.71 ± 4.00 pg/mL	11.73 ± 4.20 pg/mL	Mean value of hindfoot joint score [1, 14]: 4.4*; Thickness of ankle joint (mean ± SD) [5, 6]: 6.28 ± 0.44 mm; Thickness of ankle joint (mean ± SD) [5, 7]: 6.44 ± 0.60 mm; Thickness of ankle joint (mean ± SD) [5, 8]: 6.07 ± 0.41 mm; Thickness of ankle joint (mean ± SD) [5, 9]: 6.27 ± 0.36 mm; Thickness of ankle joint (mean ± SD) [5, 10]: 6.36 ± 0.64 mm; Thickness of ankle joint (mean ± SD) [5, 11]: 6.20 ± 0.52 mm; Thickness of ankle joint (mean ± SD) [5, 12]: 6.09 ± 0.45 mm; Thickness of ankle joint (mean ± SD) [5, 13]: 6.74 ± 0.44 mm; Thickness of ankle joint (mean ± SD) [5, 14]: 6.15 ± 0.37 mm; Joint lesion score (mean ± SD) [4]: 3.75 ± 2.06
7-α-[9-(4,4,5,5,5-pentafluoropentylsulfinyl)nonyl]-estra-1,3,5(10)-triene-3-hydroxyl-17-docosanoyl [Compound III]	5.4	4.8**^#	5.6	4.5	5.3**^##	5	5	4.8**	16.53 ± 15.71 pg/mL	10.36 ± 7.08 pg/mL	81.94 ± 141.25 pg/mL	157.89 ± 248.01 pg/mL	12.31 ± 17.56 pg/mL	39.56 ± 29.29 pg/mL	11.05 ± 3.96 pg/mL	12.93 ± 4.15 pg/mL	13.62 ± 3.42 pg/mL	13.85 ± 3.38 pg/mL	14.13 ± 4.20 pg/mL	12.02 ± 5.91 pg/mL	Mean value of hindfoot joint score [1, 14]: 5.4; Thickness of ankle joint (mean ± SD) [5, 6]: 6.59 ± 0.44 mm; Thickness of ankle joint (mean ± SD) [5, 7]: 6.55 ± 0.56 mm; Thickness of ankle joint (mean ± SD) [5, 8]: 6.31 ± 0.69 mm; Thickness of ankle joint (mean ± SD) [5, 9]: 5.94 ± 0.52 mm; Thickness of ankle joint (mean ± SD) [5, 10]: 6.22 ± 0.38 mm; Thickness of ankle joint (mean ± SD) [5, 11]: 6.06 ± 0.29 mm; Thickness of ankle joint (mean ± SD) [5, 12]: 6.33 ± 0.52 mm; Thickness of ankle joint (mean ± SD) [5, 13]: 6.45 ± 0.53 mm; Thickness of ankle joint (mean ± SD) [5, 14]: 6.36 ± 0.46 mm; Joint lesion score (mean ± SD) [4]: 1.50 ± 1.91
C[C@]12CC[C@@H]3c4ccc(O)cc4C[C@@H](CCCCCCCCC[S+]([O-])CCCC(F)(F)C(F)(F)F)[C@H]3[C@@H]1CC[C@@H]2O (stereo partly drawn) [Compound I, 7-α-[9-(4,4,5,5,5-pentafluoropentylsulfinyl)nonyl]-estra-1,3,5(10)-triene-3,17β-diol, reference compound]	–	–	–	–	–	–	–	–	13.48 ± 25.05 pg/mL	18.45 ± 12.72 pg/mL	50.15 ± 60.06 pg/mL	52.78 ± 67.16 pg/mL	31.55 ± 54.58 pg/mL	22.41 ± 25.25 pg/mL	8.66 ± 4.33 pg/mL	10.16 ± 5.82 pg/mL	9.57 ± 5.10 pg/mL	8.98 ± 7.44 pg/mL	10.71 ± 4.61 pg/mL	9.63 ± 3.02 pg/mL	–

From US20160038439A1, “Use of 7-a-[9-(4,4,5,5,5-pentafluoropentylsulfinyl)nonyl]-estra-1,3,5(10)- triene-3,17B-diol and derivatives thereof” (XI'ANLIBANG PHARMACEUTICAL TECHNOLOGY CO., LTD., priority 2013, published 2016)
